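96-well plates; 48 h exposure; 5 concentrations. Endpoints by linear interpolation between flanking doses. Not reached: highest tested concentration assigned. TGI is the concentration that stops growth completely.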
What was measured:
Test in all cases: growth of human tumour cells (NCI), 48 h
MDA-MB-435 = tested on: MDA-MB-435
COLO 205 colon = tested on: COLO 205 colon
HS 578T breast = tested on: HS 578T breast
NCI/ADR-RES ovarian = tested on: NCI/ADR-RES ovarian
MDA-N = tested on: MDA-N
M14 melanoma = tested on: M14 melanoma
T-47D breast = tested on: T-47D breast
UACC-62 melanoma = tested on: UACC-62 melanoma
UO-31 renal = tested on: UO-31 renal
RPMI-8226 leukemia = tested on: RPMI-8226 leukemia
SW-620 colon = tested on: SW-620 colon
SK-MEL-5 melanoma = tested on: SK-MEL-5 melanoma
RXF 393 renal = tested on: RXF 393 renal
HCT-116 colon = tested on: HCT-116 colon

Row | Compound | TGI (MDA-MB-435) [µM] | TGI (COLO 205 colon) [µM] | TGI (HS 578T breast) [µM] | TGI (NCI/ADR-RES ovarian) [µM] | TGI (MDA-N) [µM] | TGI (M14 melanoma) [µM] | TGI (T-47D breast) [µM] | TGI (UACC-62 melanoma) [µM] | TGI (UO-31 renal) [µM] | TGI (RPMI-8226 leukemia) [µM] | TGI (SW-620 colon) [µM] | TGI (SK-MEL-5 melanoma) [µM] | TGI (RXF 393 renal) [µM] | TGI (HCT-116 colon) [µM]
1 | CC(C)C1OC(=O)C(Cc2ccccc2)N(C)C(=O)C(C(C)C)OC(=O)C(Cc2ccccc2)N(C)C(=O)C(C(C)C)OC(=O)C(Cc2ccccc2)N(C)C1=O (stereo not drawn) | 1.41 | 1.95 | 4.9 | 2.36 | 2.1 | 2.03 | 3.25 | 1.98 | 1.27 | 1.31 | 2.54 | 1.08 | 2.33 | 2.36
2 | O=C(Cn1c(=O)oc2ccccc21)N(c1ccccc1)c1ccccc1 | > 100 | > 100 | > 100 | > 100 | > 100 | > 100 |  | > 100 | > 100 | > 100 | > 100 | > 100 | > 100 | > 100
3 | CCOC(=O)/C(C(=O)c1ccc[nH]1)=C1/CCCN1C | > 100 | > 100 | > 100 | > 100 | > 100 | > 100 | > 100 | > 100 | > 100 | > 100 | > 100 | > 100 | > 100 | > 100
4 | CC(C)=CC(=O)c1[nH]c2ccccc2c1CC(=O)NCCc1cnc[nH]1 | > 100 | > 100 | > 100 | > 100 | > 100 | > 100 | > 100 | > 100 | > 100 |  | > 100 | > 100 | > 100 | > 100
5 | CC[C@@]1(O)C(=O)OCc2c1cc1n(c2=O)Cc2c-1nc1ccc(N)cc1c2CC[Si](C)(C)C | 4.54 | 0.197 | 27.3 | 2.02 | 1.62 | < 0.0499 | 20.6 | < 0.0104 | < 0.0173 | 0.0841 | 14.6 | < 0.0222 | 0.257 | 2.01
6 | CCOc1c2c(cc3c1C(=O)c1c(OC)cccc1C3=O)C=C(OC)CC2 | > 25 | > 25 | > 25 | > 25 | 19.9 | > 25 |  | > 25 | > 25 | > 25 | > 25 | > 25 | > 25 | > 25
7 | Cc1ccc2c(c1)CC1(Cc3cc(C)ccc3C1=O)C2=O | > 100 |  | > 100 | > 100 | > 100 | > 100 | > 100 |  | > 100 | > 100 | > 100 | > 100 | > 100 | > 100
8 | Cc1csc(NCc2ccc(Cl)cc2)n1 | > 100 | 63.1 | > 100 | > 100 | > 100 | > 100 | > 100 |  | > 100 | > 100 | > 100 | 59.4 | 79 | > 100
9 | COc1cccc(C2c3cc4c(cc3OC(NNS(=O)(=O)c3ccc(C)cc3)C2C)OCO4)c1O (stereo not drawn) | 92.4 | 34.2 | 41.6 |  | 80.1 | > 100 | > 100 | 79.7 | > 100 | 32.4 | > 100 | 42 | 70.9 | 30.1
10 | CC(=O)N(C(=O)CC(=O)N1N=C(C)C(N=Nc2cccc([N+](=O)[O-])c2)C1=O)c1ccc(Cl)cc1 (stereo not drawn) | > 10 | > 10 | > 10 | > 10 | > 10 | > 10 | > 10 | > 10 |  | > 10 | > 10 | > 10 |  | > 10
11 | CCn1c(=O)c2nc(SC)sc2n(-c2ccccc2)c1=S | > 100 |  | > 100 | > 100 | > 100 | > 100 | > 100 | 97.6 | 35.4 | > 100 | > 100 | > 100 | > 100 | > 100
12 | c1cc(CSP234N5CCN2CCN3CCN4CC5)cc(CSP234N5CCN2CCN3CCN4CC5)c1 | 59.3 | 49.9 | 69.3 | > 100 | 79.9 | 49 | > 100 | 36.6 | 39.3 | > 100 | > 100 | 45.5 |  | > 100
13 | COc1ccc2cc(CNCCCCCCNC(=O)Nc3cccc4ccccc34)ccc2c1 | > 100 | > 100 | > 100 |  | > 100 | > 100 | > 100 | > 100 |  | > 100 | > 100 | > 100 | > 100 | > 100
14 | Cc1n[nH]c(=O)c2c3c([nH]c12)-c1ccccc1C3 | > 100 | > 100 | > 100 | > 100 | > 100 | > 100 | > 100 |  | > 100 | > 100 | > 100 | > 100 | > 100 | > 100
15 | CC(NC(CC12CC3CC(CC(C3)C1)C2)C(N)=O)c1ccccc1 (stereo not drawn) | 41.1 | 28.7 |  | 48 | 75.6 | 45.7 | > 100 | > 100 | 51.4 | 40.5 | > 100 | 26.3 |  | 42.2
16 | COc1ccc(Cl)cc1NC(=O)O/N=C(\Cl)C(C)C | 47.6 | 3.5 | 69.2 | 16.6 | 26.2 | 13 | 16.8 | 32.1 | 28.5 | 4.61 |  | > 44.5 | 17.4 | 45.5
17 | CN(CCNC(=O)c1nn(C)c2c1Cc1ccccc1-2)CCNC(=O)c1nn(C)c2c1Cc1ccccc1-2 | 31.1 | 24.8 |  | 70.4 | 29.4 | 26.5 | 91.5 | 28.7 | 24.2 |  | 38.9 | 24.5 | 29.5 | 28.9
18 | O=c1[nH]nc(-c2cccc([N+](=O)[O-])c2)[nH]1 | > 100 | > 100 | > 100 | > 100 | > 100 | > 100 | > 100 | > 100 | > 100 | > 100 | > 100 |  | > 100 | > 100
19 | Cc1[nH]c2c(C)c3c([nH]c4ccc(Cl)cc43)c(C)c2c(=O)c1C | > 53.5 | 18.8 | > 100 | 60.5 | 32.6 | > 100 | 16.8 | > 88.3 | 38.9 | 24.9 | > 100 | 42.2 |  | 11.3
20 | CCOC(=O)c1c(NS(=O)(=O)c2ccccc2)sc2c1CCCC2 |  | > 100 | > 100 | > 100 | > 100 | > 100 | > 100 | > 100 | > 100 | > 100 |  | > 100 | > 100 | > 100
21 | COc1cc2c(cc1C)NC(=O)/C2=C/c1c(Cl)[nH]c2ccccc12 | 4.13 | 13.1 | 28.7 |  | 3.82 | 13.3 | 34.1 | 14.4 | 25.8 | > 100 | 19.6 | 11.4 | 24.7 | 17
22 | O=C1c2cccc3cc([N+](=O)[O-])cc(c23)C(=O)N1c1ccc(OCCN2CCCC2)cc1 | 45.1 | 38.3 | > 100 | > 100 | 80.3 | 47.1 | > 100 |  | 27.1 |  | 95.2 | 30.1 | 37 | 46.7
23 | COc1ccc(C(CC(=O)c2cccs2)C(=O)c2ccc3c(c2)OCO3)cc1 (stereo not drawn) | > 100 | > 100 | > 100 | > 100 | > 100 | > 100 | > 100 | > 100 |  | > 100 | > 100 | > 100 |  | > 100
24 | CCC(CCCC[C@H]1CC[C@@H]2CC(=O)C[C@H]12)OC (stereo partly drawn) | > 100 | > 100 | > 100 | > 100 | > 100 | > 100 | > 100 | > 100 |  | > 100 | > 100 | > 100 | > 100 | > 100
25 | O=C(O)c1ccccc1Sc1ccc(C=C2NC(=S)N(c3ccccc3)C2=O)s1 | > 100 | > 100 | > 100 | > 100 | > 100 |  | > 100 | > 100 | > 100 | > 100 | > 100 | > 100 | > 100 | > 100
26 | C#C[C@]1(O)CC[C@H]2[C@@H]3CCC4=C/C(=N/OC(=O)c5cccc6cc7ccccc7nc56)CC[C@@H]4[C@H]3CC[C@@]21CC | > 100 | > 100 | > 100 | > 100 | > 100 | > 100 | > 100 | > 100 |  | > 100 | > 100 | > 100 | > 100 | > 100

Reference: PubChem BioAssay (NCI)
